Test results published in ChEMBL document CHEMBL1147628, “Identification of novel potent bicyclic peptide deformylase inhibitors” (Bioorg Med Chem Lett, 2004).

The compounds below were run against T1, Peptide deformylase (Staphylococcus aureus subsp. aureus Mu50, UniProt P68825) (assay: Inhibitory activity towards Ni-peptide deformylase of Staphylococcus aureus).
T1 sequence (P68825 whole entry): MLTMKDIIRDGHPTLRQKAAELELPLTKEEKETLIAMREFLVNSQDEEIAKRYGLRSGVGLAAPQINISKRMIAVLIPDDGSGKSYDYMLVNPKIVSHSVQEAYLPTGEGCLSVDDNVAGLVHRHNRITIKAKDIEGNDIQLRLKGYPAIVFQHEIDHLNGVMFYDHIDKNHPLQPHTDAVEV
`O=C(CC1Sc2ccccc2N(CC(=O)N2CCCC2)C1=O)NO` (stereo not given) showed an IC50 of 397 nM.
`O=C(CC1Sc2ccccc2N(Cc2ccccc2)C1=O)NO` (stereo not given) gave an IC50 of 12 nM.
`CCCCCN1C(=O)C(CC(=O)NO)Sc2ccccc21` (stereo not given) gave an IC50 of under 5 nM.
`O=C(CC1Cc2ccccc2N(CC2CC2)C1=O)NO` (stereo not given) showed an IC50 of 175 nM.
`N#CCN1C(=O)C(CC(=O)NO)Sc2ccccc21` (stereo not given) gave an IC50 of 515 nM.
Work on `CN1C(=O)C(CC(=O)NO)Sc2ccccc21` (stereo not given) yielded an IC50 of 37 nM.
`O=C(CC1Sc2ccccc2N(CC2CCC2)C1=O)NO` (stereo not given) showed an IC50 of 41 nM.
Compound `O=C(CC1Sc2ccccc2N(CC2CCCCO2)C1=O)NO` (stereo not given) has an IC50 of 18 nM.
For `CC(C)CCCN1C(=O)C(CC(=O)NO)Sc2ccccc21` (stereo not given), the IC50 was under 5 nM.
With `O=C(CC1Sc2ccccc2N(CC(=O)Nc2cc(F)ccc2F)C1=O)NO` (stereo not given) the IC50 was 58 nM.
For `NNC(=O)CC1Sc2ccccc2NC1=O` (stereo not given), the IC50 was 330 nM.
In the case of `O=C1Nc2ccccc2SC1CNO` (stereo not given), the IC50 is reported as over 2000 nM.
`O=C(CC1Sc2ccccc2N(CCC2CCCCC2)C1=O)NO` (stereo not given) was tested, and the IC50 was 57 nM.
In the case of `CC(C)(C)C(=O)CN1C(=O)C(CC(=O)NO)Sc2ccccc21` (stereo not given), the IC50 is reported as 50 nM.
For `CC(C)CCN1C(=O)C(CC(=O)NO)Sc2ccccc21` (stereo not given), the IC50 was under 5 nM.
`COCCN1C(=O)C(CC(=O)NO)Sc2ccccc21` (stereo not given) gave an IC50 of under 5 nM.
In the case of `O=C(CC1Sc2ccccc2N(CCc2ccccc2)C1=O)NO` (stereo not given), the IC50 is reported as under 5 nM.
`O=C(O)CC1Sc2ccccc2NC1=O` (stereo not given) was tested, and the IC50 was over 2000 nM.
`O=C(CC1Sc2ccccc2NC1=O)NO` (stereo not given) gave an IC50 of under 5 nM.
`O=C(CC1Sc2ccccc2N(CCC2OCCO2)C1=O)NO` (stereo not given) showed an IC50 of under 5 nM.
`CON(C)C(=O)CC1Sc2ccccc2NC1=O` (stereo not given) showed an IC50 of over 2000 nM.
`CONC(=O)CC1Sc2ccccc2NC1=O` (stereo not given) showed an IC50 of 74 nM.
`O=C(CC1C(=O)Nc2ccccc2S1(=O)=O)NO` (stereo not given) showed an IC50 of over 2000 nM.
`O=C(CC1Sc2ccccc2N(CC(=O)Nc2ccccn2)C1=O)NO` (stereo not given) was tested, and the IC50 was 343 nM.
`CCCCC[C@H](CC(=O)NO)C(=O)N[C@H](C(=O)N1CCC[C@H]1CO)C(C)C` [ACTINONIN] showed an IC50 of under 5 nM.
